Test results published in patent US7618998B2, “Isoflavone derivatives and pharmaceutical compositions comprising the same” (Kaosiung Medical University, priority 2008, dated 2009).

What was measured:
[1] = tested on: TRAP activity in RAW 264.7; experiment: Tartrate resistant acid phosphatase (TRAP) solution assay in RANKL-treated RAW 264.7 cells; format: cell-based; details: for inhibition at 10 µM: Mus musculus, RAW264.7, 120 h, 5 days, RANKL 100 ng/mL
Description: 10^3 Raw 264.7 cells were cultured in 96-well plates with 100 ng/mL RANKL (R&D Systems, Minneapolis, Minn.). Cultures were incubated at 37° C. in 5% CO2 for 5 days with the addition of media containing fresh RANKL on day 3. In the TRAP solution assay, enzyme activity was examined by the conversion of α-naphthyl phosphate (4 mmol/liter; Sigma Chemical Co.) to α-naphthol in the presence of a 2 mol/liter L-tartrate solution (Sigma Chemical Co.) in each well. Absorbance was measured at 405 nm using a microplate reader (model 550; Bio-Rad Labs.) (Bandyopadhyay, S. et. el. Biochem. Pharmacol. 2006, 72, 184.).

D1 cells [2] = experiment: Cell viability by MTT assay in D1 cells; format: cell-based, Balb/c mice; details: 10 μM, % of control
Description: (§1) D1-cell, which is a mesenchymal stem cell line cloned from bone marrow cells of Balb/c mice, were purchased from American Type Culture Collection (Rockville, Md.). D1-cells can be induced into osteoblasts, adipocytes and chondrocytes. D1-cells were maintained in DMEM (Gibco BRL, Gaithersburg, Md.) supplemented with 10% FBS, 100 U/ml of penicillin and streptomycin.
(§2) New synthetic compounds were dissolved in DMSO to a final concentration of 10 mM and stored at −20° C. The concentration used was 10 μM and freshly diluted to the medium with a final concentration of DMSO at 0.1%. Control cultures were treated with the same amount of DMSO as used in the corresponding experiments.
(§3) The MTT assay is a calorimetric assay based on the ability of the viable cells to reduce a soluble yellow tetrazolium salt to blue formazan crystals (Carmichael, J. et. el. Cancer Research 1987, 47, 936). After compound treatments, 350 μL of MTT solution ([…] in PBS) were added to each well and incubated for 4 hrs. DMSO was then added for another 0.5 hrs to thoroughly dissolve the dark blue crystals. The absorbance at 570 nm was measured with an ELISA reader. Inhibition of mitochondrial metabolism was shown as relative activity (% of control).

hADSCs [3] = experiment: Cell viability by MTT assay in hADSCs; format: cell-based, Human; details: 10 μM, % of control
Description: (§4) Human adipose tissue derived stem cells (hADSCs), which is derived from adipose tissue, were selected an maintained in a keratinocyte SFM medium (Gibco BRL, Gaithersburg, Md.) supplemented with 5% FBS, 100 U/ml of penicillin and streptomycin.
as §2, §3

D1 cells [4] = experiment: Osteogenic differentiation, quantification of mineralization (Alizarin red S) in D1 cells; format: cell-based, Balb/c mice; details: 10 μM, osteo-induction medium
Description: as §1, §2
(§5) Osteogenic differentiation was induced by culturing cells in an osteo-induction medium (OIM, 10% FBS, 0.1 μM dexamethasone, 10 mM β-glycerophosphate, and L-Ascorbic 2 phosphate 100 μM in low glucose DMEM) for 7-14 days. The extracellular matrix calcification was estimated by using an Alizarin red S stain (Carl, A. et al Anal. Biochem. 2004, 329, 77). The Alizarin red S-stained mineral was quantified by the osteogenesis quantification kit (CHEMICON®).

MC3T3E1 cells = experiment: Osteogenic differentiation, quantification of mineralization (Alizarin red S) in MC3T3E1 cells; format: cell-based, C57BL/6 mice; details: for Mineralization MC3T3E1 cells (12 days): 10 μM, osteo-induction medium
Description: MC3T3E1 cell, which is a preosteoblast cell line derived from calvaria of C57BL/6 mice, were obtained from the American Type Culture Collection (Rockville, Md.). MC3T3E1 cells were maintained in αMEM (Gibco BRL, Gaithersburg, Md.) supplemented with 10% FBS, 100 U/mL of penicillin and streptomycin.
as §2, §5

hADSCs [5] = experiment: Osteogenic differentiation, quantification of mineralization (Alizarin red S) in hADSCs; format: cell-based, Human; details: 10 μM, osteo-induction medium
Description: as §4, §2, §5

Compound | melting point | inhibition at 10 µM [1] | Anti-osteoporotic activities compared with compound 5c ([1]; overall statement on Tables 1 and 2 (TRAP inhibition and mineralization)) | Cell viability D1 cells (3 days, MTT) (D1 cells [2]) | Cell viability hADSCs (3 days, MTT) (hADSCs [3]) | Mineralization D1 cells (7 days) (D1 cells [4]) | Mineralization MC3T3E1 cells (12 days) (MC3T3E1 cells) | Mineralization hADSCs (10 days) (hADSCs [5]) | Osteoclast inhibitory activity (inhibition of TRAP activity in RAW 264.7) relative to ipriflavone ([1]; more active than ipriflavone) | Promotion of osteoblast activity (mineralization in MC3T3E1 cells) relative to ipriflavone (MC3T3E1 cells; more active than ipriflavone)
COc1ccc(-c2coc3cc(OCC4CO4)ccc3c2=O)cc1OC (stereo not drawn) [Compound 4, 3-(3,4-Dimethoxyphenyl)-7-(oxiran-2-ylmethoxy)-4H-chromen-4-one] |  | 119% | comparable anti-osteoporotic activities with that of compound 5c | 76% | 84% | 112% | 977% | 429% |  | 
CC(C)Oc1ccc2c(=O)c(-c3ccccc3)coc2c1 [Ipriflavone, reference compound] |  | 31% |  | 81% | 99% | 100% | 100% | 100% |  | 
COc1ccc2c(=O)c(-c3ccc(OCC4CO4)cc3)coc2c1 (stereo not drawn) [Compound 3, 7-Methoxy-3-[4-(oxiran-2-ylmethoxy)phenyl]-4H-chromen-4-one] | 153 to 154 °C | 107% |  |  |  |  |  |  |  | 

Continued, in another order:

melting point | Compound | inhibition at 10 µM [1] | Anti-osteoporotic activities compared with compound 5c ([1]; overall statement on Tables 1 and 2 (TRAP inhibition and mineralization)) | Cell viability D1 cells (3 days, MTT) (D1 cells [2]) | Cell viability hADSCs (3 days, MTT) (hADSCs [3]) | Mineralization D1 cells (7 days) (D1 cells [4]) | Mineralization MC3T3E1 cells (12 days) (MC3T3E1 cells) | Mineralization hADSCs (10 days) (hADSCs [5]) | Osteoclast inhibitory activity (inhibition of TRAP activity in RAW 264.7) relative to ipriflavone ([1]; more active than ipriflavone) | Promotion of osteoblast activity (mineralization in MC3T3E1 cells) relative to ipriflavone (MC3T3E1 cells; more active than ipriflavone)
117 to 118 °C | COc1ccc2c(=O)c(-c3ccc(OCC(O)CN4CCOCC4)cc3)coc2c1 (stereo not drawn) [Compound 5a, 3-[4-(2-Hydroxy-3-morpholinopropoxy)phenyl]-7-methoxy-4H-chromen-4-one] | 0% |  |  |  |  |  |  |  | 
135 to 136 °C | COc1ccc(-c2coc3cc(OCC(O)CN4CCOCC4)ccc3c2=O)cc1OC (stereo not drawn) [Compound 6a, 3-(3,4-Dimethoxyphenyl)-7-(2-hydroxy-3-morpholinopropoxy)-4H-chromen-4-one] | 0% |  |  |  |  |  |  |  | 
70 to 71 °C | COc1ccc(-c2coc3cc(OCC(O)CNC4CCCCC4)ccc3c2=O)cc1OC (stereo not drawn) [Compound 6c, 7-[3-(Cyclohexylamino)-2-hydroxypropoxy]-3-(3,4-dimethoxyphenyl)-4H-chromen-4-one] | 120% |  |  |  |  |  |  |  | 
84 to 85 °C | COc1ccc(-c2coc3cc(OCC(O)CN4CCNCC4)ccc3c2=O)cc1OC (stereo not drawn) [Compound 6b, 3-(3,4-Dimethoxyphenyl)-7-[2-hydroxy-3-(piperazin-1-yl)propoxy]-4H-chromen-4-one] | 0% |  |  |  |  |  |  |  | 
125 to 126 °C | COc1ccc2c(=O)c(-c3ccc(OCC(O)CNC4CCCCC4)cc3)coc2c1 (stereo not drawn) [Compound 5c, 3-{4-[3-(Cyclohexylamino)-2-hydroxypropoxy]phenyl}-7-methoxy-4H-chromen-4-one] | 119% |  | 82% | 97% | 78% | 976% |  | 4 fold | 10 fold
105 to 106 °C | COc1ccc2c(=O)c(-c3ccc(OCC(O)CNC4CC4)cc3)coc2c1 (stereo not drawn) [Compound 5b] | 103% |  |  |  |  |  |  |  | 
